Source: PubChem BioAssay (NCI)
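Briefly, cells in 96-well plates were exposed to five compound concentrations for 48 h, and endpoints were estimated by linear interpolation. TGI is the concentration that stops growth completely.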

How the values were obtained:
Assay in all cases: DTP human tumour cell line panel, 48 h
CCRF-CEM leukemia = test system: CCRF-CEM leukemia
HCT-15 colon = test system: HCT-15 colon
HOP-92 NSCLC = test system: HOP-92 NSCLC
IGROV1 ovarian = test system: IGROV1 ovarian
K-562 leukemia = test system: K-562 leukemia
LOX IMVI melanoma = test system: LOX IMVI melanoma
M14 melanoma = test system: M14 melanoma
MALME-3M melanoma = test system: MALME-3M melanoma
MDA-MB-231 breast = test system: MDA-MB-231 breast
NCI-H226 lung = test system: NCI-H226 lung
NCI-H460 lung = test system: NCI-H460 lung
OVCAR-4 ovarian = test system: OVCAR-4 ovarian
RXF 393 renal = test system: RXF 393 renal
SK-MEL-5 melanoma = test system: SK-MEL-5 melanoma
SK-OV-3 ovarian = test system: SK-OV-3 ovarian
SN12C renal = test system: SN12C renal
SW-620 colon = test system: SW-620 colon
TK-10 renal = test system: TK-10 renal
UACC-257 melanoma = test system: UACC-257 melanoma
OVCAR-5 ovarian = test system: OVCAR-5 ovarian

| SMILES | TGI (CCRF-CEM leukemia) | TGI (HCT-15 colon) | TGI (HOP-92 NSCLC) | TGI (IGROV1 ovarian) | TGI (K-562 leukemia) | TGI (LOX IMVI melanoma) | TGI (M14 melanoma) | TGI (MALME-3M melanoma) | TGI (MDA-MB-231 breast) | TGI (NCI-H226 lung) | TGI (NCI-H460 lung) | TGI (OVCAR-4 ovarian) | TGI (RXF 393 renal) | TGI (SK-MEL-5 melanoma) | TGI (SK-OV-3 ovarian) | TGI (SN12C renal) | TGI (SW-620 colon) | TGI (TK-10 renal) | TGI (UACC-257 melanoma) | TGI (OVCAR-5 ovarian) |
| --- | --- | --- | --- | --- | --- | --- | --- | --- | --- | --- | --- | --- | --- | --- | --- | --- | --- | --- | --- | --- |
| CC(C)(C)/C(=N\Nc1nc2ccccc2[nH]1)c1ccccn1 | > 100 µM | > 100 µM | > 100 µM | > 100 µM | > 100 µM | > 100 µM | > 100 µM | 61.5 µM | > 100 µM | > 100 µM | > 100 µM | > 100 µM | > 100 µM | > 100 µM | > 100 µM | > 100 µM | > 100 µM | 67.8 µM | > 100 µM |  |
| O=C(O)COCC(=O)N(CCOCCN(Cc1ccccc1)C(=O)COCC(=O)O)Cc1ccccc1 | > 100 µM | > 100 µM | > 100 µM | > 100 µM | > 100 µM | > 100 µM | > 100 µM | > 100 µM | > 100 µM | > 100 µM | > 100 µM |  | > 100 µM | > 100 µM | > 100 µM | > 100 µM | > 100 µM | > 100 µM | > 100 µM | > 100 µM |
| CC(=O)Oc1cc(Cl)c(C)c2c1[C@H]1CC[C@]3(C)[C@@H](OC(C)=O)CC[C@H]3[C@@H]1CC2 | > 100 µM | > 100 µM | > 100 µM | > 100 µM | > 100 µM | > 100 µM | > 100 µM | > 100 µM | > 100 µM | > 100 µM | > 100 µM |  | > 100 µM | > 100 µM |  | > 100 µM | > 100 µM | > 100 µM | > 100 µM | > 100 µM |
| CC(C)NC(NC(C)C)=C(S(=O)(=O)C(F)(F)C(F)(F)C(F)(F)C(F)(F)F)S(=O)(=O)C(F)(F)C(F)(F)C(F)(F)C(F)(F)F | > 100 µM | > 100 µM | > 100 µM | > 100 µM | > 100 µM | > 100 µM | > 100 µM | > 100 µM | > 100 µM | > 100 µM | > 100 µM | > 100 µM |  | > 100 µM | > 100 µM | > 100 µM | > 100 µM | > 100 µM | > 100 µM | > 100 µM |
| Nc1nc(Cl)c(CO)c(NCC2(CO)CC(CCc3ccccc3)C2)n1 (stereo not drawn) | 69.5 µM | > 100 µM | 73.1 µM |  | 43.1 µM | 50.4 µM |  | 42.5 µM | 39.1 µM | 36.3 µM | 56.9 µM | 54.9 µM | 63 µM | 39.4 µM |  | > 100 µM | 54.2 µM | > 100 µM | 32.4 µM | > 100 µM |
| N#Cc1c(=O)n(-c2ccccc2)c(O)c2c(N)n[nH]c12 |  | > 100 µM | > 100 µM | > 100 µM | > 100 µM | > 100 µM | > 100 µM | > 100 µM | > 100 µM | > 100 µM | > 100 µM | > 100 µM | > 100 µM | > 100 µM | > 100 µM | > 100 µM | > 100 µM | > 100 µM | > 100 µM | > 100 µM |
| c1ccc2c(c1)CC1=C(O2)c2ccccc2OC1 | > 100 µM | 72.6 µM | 95 µM | > 100 µM |  | 40.2 µM | > 100 µM | > 100 µM | 76.2 µM | > 100 µM |  | 88.2 µM |  | 44.3 µM | > 100 µM | 37.4 µM | 42.2 µM | 94.3 µM | > 100 µM | > 100 µM |
